Data: ChEMBL document CHEMBL4765295, “Synthesis, pharmacological profile and 2D-QSAR studies of curcumin-amino acid conjugates as potential drug candidates” (Eur J Med Chem, 2020)
“And” between values parts separate entries of the source, which are not always exact repeats. Identical values can stand only once.

Columns and labels:
Rattus norvegicus [1] = assay: Antiinflammatory activity in Wistar rat model of carrageenan-induced paw edema assessed as reduction in thickness of paw edema at 10 mg/kg, ip pretreated for 1 hr followed by carrageenan challenge and measured after 1 hr (reference value: 2.41 +/-0.05 mm); format: functional; conditions: time 1 hr after carrageenan
Rattus norvegicus [2] = assay: Anti-inflammatory activity in Wistar rat assessed as inhibition of carrageenan-induced paw edema at 10 mg/kg, ip pretreated for 1 hr followed by carrageenan challenge and measured after 1 hr relative to control (reference value: 0.00 +/-0.02 %); format: functional; conditions: time 2 hrs
Rattus norvegicus [3] = assay: Antiinflammatory activity in Wistar rat model of carrageenan-induced paw edema assessed as reduction in thickness of paw edema at 10 mg/kg, ip pretreated for 1 hr followed by carrageenan challenge and measured after 2 hrs (reference value: 2.06 +/-0.09 mm); format: functional; conditions: time 3 hrs
Rattus norvegicus [4] = assay: Anti-inflammatory activity in Wistar rat assessed as inhibition of carrageenan-induced paw edema at 10 mg/kg, ip pretreated for 1 hr followed by carrageenan challenge and measured after 2 hr relative to control (reference value: 0.00 +/-0.03 %); format: functional; conditions: time 3 hrs
Rattus norvegicus [5] = assay: Antiinflammatory activity in Wistar rat model of carrageenan-induced paw edema assessed as reduction in thickness of paw edema at 10 mg/kg, ip pretreated for 1 hr followed by carrageenan challenge and measured after 3 hrs (reference value: 1.79 +/-0.07 mm); format: functional; conditions: time 4 hrs
Rattus norvegicus [6] = assay: Anti-inflammatory activity in Wistar rat assessed as inhibition of carrageenan-induced paw edema at 10 mg/kg, ip pretreated for 1 hr followed by carrageenan challenge and measured after 3 hr relative to control (reference value: 0.00 +/-0.1 %); format: functional; conditions: time 4 hrs
Rattus norvegicus [7] = assay: Antiinflammatory activity in Wistar rat model of carrageenan-induced paw edema assessed as reduction in thickness of paw edema at 10 mg/kg, ip pretreated for 1 hr followed by carrageenan challenge and measured after 4 hrs (reference value: 1.40 +/-0.10 mm); format: functional; conditions: time 5 hrs
Rattus norvegicus [8] = assay: Anti-inflammatory activity in Wistar rat assessed as inhibition of carrageenan-induced paw edema at 10 mg/kg, ip pretreated for 1 hr followed by carrageenan challenge and measured after 4 hr relative to control (reference value: 0.00 +/-0.4 %); format: functional; conditions: time 5 hrs
Rattus norvegicus [9] = assay: Antiinflammatory activity in Wistar rat model of carrageenan-induced paw edema assessed as reduction in thickness of paw edema at 10 mg/kg, ip pretreated for 1 hr followed by carrageenan challenge and measured after 24 hrs (reference value: 0.83 +/-0.08 mm); format: functional; conditions: time 25 hrs
Rattus norvegicus [10] = assay: Anti-inflammatory activity in Wistar rat assessed as inhibition of carrageenan-induced paw edema at 10 mg/kg, ip pretreated for 1 hr followed by carrageenan challenge and measured after 24 hr relative to control (reference value: 0.00 +/-0.3 %); format: functional; conditions: time 25 hrs
Rattus norvegicus [11] = assay: Anti-inflammatory activity in Wistar rat assessed as inhibition of carrageenan-induced paw edema at 10 mg/kg, ip pretreated for 1 hr followed by carrageenan challenge and measured after 4 hr relative to indomethacin; format: functional; conditions: time 5 hrs
Splenocyte [12] = assay: Immunomodulatory activity in Swiss albino mouse splenocytes assessed as cell viability at 10 uM by measuring stimulation index incubated for 72 hrs in presence of mitogenic stimulus phytohaemagglutinin by MTT assay (reference value: 1.00 +/- 0.24); format: functional
Splenocyte [13] = assay: Immunomodulatory activity in Swiss albino mouse splenocytes assessed as cell viability at 10 uM by measuring inhibition of stimulation index incubated for 72 hrs in presence of mitogenic stimulus phytohaemagglutinin by MTT assay relative to indomethacin; format: functional; conditions: read-out: Activity
Peritoneal macrophage [14] = assay: Antiinflammatory activity in […] mouse Peritoneal macrophages assessed as reduction in LPS-induced NO production by measuring reduction in stimulation index at 10 uM preincubated for 1 hr followed by LPS stimulation measured after 24 hrs by Griess method (reference value: 27.31 +/- 2.56 uM); format: functional; conditions: time 25 hrs
Peritoneal macrophage [15] = assay: Antiinflammatory activity in […] mouse Peritoneal macrophages assessed as inhibition of LPS-induced NO production at 10 uM preincubated for 1 hr followed by LPS stimulation measured after 24 hrs by Griess method relative to control (reference value: 0.0 %); format: functional; parameters: scale not given: the % may be the effect or the level left; conditions: time 25 hrs
Staphylococcus aureus = assay: Antibacterial activity against Staphylococcus aureus ATCC 25923 incubated for 18 hrs by agar dilution method; format: functional
Streptococcus pyogenes = assay: Antibacterial activity against Streptococcus pyogenes ATCC 19615 incubated for 18 hrs by agar dilution method; format: functional
Salmonella typhimurium = assay: Antibacterial activity against Salmonella typhimurium ATCC 19430 incubated for 18 hrs by agar dilution assay; format: functional, Salmonella enterica subsp. enterica serovar Typhimurium; conditions: Salmonella enterica
Pseudomonas aeruginosa = assay: Antibacterial activity against Pseudomonas aeruginosa ATCC 27853 incubated for 18 hrs by agar dilution assay; format: functional
Candida albicans = assay: Antifungal activity against Candida albicans incubated for 18 to 24 hrs by CLSI method; format: functional; conditions: time 18-24 hrs
[16] = Ulcerogenic activity in fasted albino mouse assessed as incidence of gastric ulceration at 10 mg/kg, po for 3 days (reference value: 0 %); format: toxicity, organism-based; conditions: in vivo, 72 h, time 3 day
[17] = Ulcerogenic activity in fasted albino mouse assessed as average number of ulcers in gastric mucosa at 10 mg/kg, po for 3 days (reference value: 0); format: toxicity, organism-based; conditions: in vivo, 72 h, time 3 day
[18] = Ulcerogenic activity in fasted albino mouse assessed as average severity of ulcers in gastric mucosa at 10 mg/kg, po for 3 days (reference value: 0); format: toxicity, organism-based; conditions: in vivo, 72 h, time 3 day
Mus musculus [19] = assay: Analgesic activity in albino mouse assessed reduction in acetic acid-induced abdominal writhing by measuring writing reflex at 10 mg/kg, ip pretreated for 1 hr followed by acetic acid challenge and measured starting 5 mins post acetic acid challenge for 10 mins (reference value: 42.4 +/- 1.02); format: functional; conditions: time 75 min, 1.25 h
Mus musculus [20] = assay: Analgesic activity in albino mouse assessed protection against acetic acid-induced abdominal writhing at 10 mg/kg, ip pretreated for 1 hr followed by acetic acid challenge and measured starting 5 mins post acetic acid challenge for 10 mins relative to control (reference value: 0 %); format: functional; conditions: time 75 min, 1.25 h
Mus musculus [21] = assay: Analgesic activity in albino mouse assessed protection against acetic acid-induced abdominal writhing at 10 mg/kg, ip pretreated for 1 hr followed by acetic acid challenge and measured starting 5 mins post acetic acid challenge for 10 mins relative to indomethacin; format: functional; conditions: time 75 min, 1.25 h
Mus musculus [22] = assay: Analgesic activity in albino mouse assessed as forepaw licking/jumping latency time at 10 mg/kg, ip measured after 30 mins by hot plate test (reference value: 5.02 +/- 0.09 sec); format: functional; conditions: 0.5 h
Mus musculus [23] = assay: Analgesic activity in albino mouse assessed as protection at 10 mg/kg, ip measured after 30 mins by hot plate test (reference value: 0 %); format: functional; conditions: 0.5 h
Mus musculus [24] = assay: Analgesic activity in albino mouse assessed as forepaw licking/jumping latency time at 10 mg/kg, ip measured after 60 mins by hot plate test (reference value: 3.42 +/- 0.03 sec); format: functional; conditions: 1 h
Mus musculus [25] = assay: Analgesic activity in albino mouse assessed as protection at 10 mg/kg, ip measured after 60 mins by hot plate test (reference value: 0 %); format: functional; conditions: 1 h
Mus musculus [26] = assay: Analgesic activity in albino mouse assessed as forepaw licking/jumping latency time at 10 mg/kg, ip measured after 90 mins by hot plate test (reference value: 2.72 +/- 0.01 sec); format: functional; conditions: 1.5 h
Mus musculus [27] = assay: Analgesic activity in albino mouse assessed as protection at 10 mg/kg, ip measured after 90 mins by hot plate test (reference value: 0 %); format: functional; conditions: 1.5 h
Mus musculus [28] = assay: Analgesic activity in albino mouse assessed as forepaw licking/jumping latency time at 10 mg/kg, ip measured after 120 mins by hot plate test (reference value: 2.62 +/- 0.06 sec); format: functional; conditions: 2 h
Mus musculus [29] = assay: Analgesic activity in albino mouse assessed as protection at 10 mg/kg, ip measured after 120 mins by hot plate test (reference value: 0 %); format: functional; conditions: 2 h
Mus musculus [30] = assay: Analgesic activity in albino mouse assessed as protection at 10 mg/kg, ip measured after 120 mins by hot plate test relative to indomethacin; format: functional; conditions: 2 h
[31] = Ulcerogenic activity in fasted albino mouse assessed as ulcer index in gastric mucosa at 10 mg/kg, po for 3 days (reference value: 0); format: toxicity, organism-based; conditions: in vivo, 72 h, time 3 day

SMILES | Activity (Rattus norvegicus [1]) | inhibition in vivo at 10 mg/kg (Rattus norvegicus [2]) | Activity (Rattus norvegicus [3]) | inhibition in vivo at 10 mg/kg (Rattus norvegicus [4]) | Activity (Rattus norvegicus [5]) | inhibition in vivo at 10 mg/kg (Rattus norvegicus [6]) | Activity (Rattus norvegicus [7]) | inhibition in vivo at 10 mg/kg (Rattus norvegicus [8]) | Activity (Rattus norvegicus [9]) | inhibition in vivo at 10 mg/kg (Rattus norvegicus [10]) | inhibition in vivo at 10 mg/kg (Rattus norvegicus [11]) | Activity [16] | Activity [17] | Activity [18] | Activity (Mus musculus [19]) | Activity (Mus musculus [20]) | Activity (Mus musculus [21]) | Time (Mus musculus [22]) | Activity (Mus musculus [23]) | Time (Mus musculus [24]) | other results
COc1cc(/C=C/C(=O)/C=C(O)/C=C/c2ccc(OC(=O)CCNC(=O)OC(C)(C)C)c(OC)c2)ccc1OC(=O)CCNC(=O)OC(C)(C)C | 1.66 mm | 31% | 1.38 mm | 33% | 0.99 mm | 45% | 0.55 mm | 61% | 0.6 mm | 28% | 70% | – | – | – | – | – | – | – | – | – | Activity_index (Splenocyte [12]): 1.7; viability at 10 µM (Splenocyte [13]): 71.1%; Activity (Peritoneal macrophage [14]): 18.35 µM; Activity (Peritoneal macrophage [15]): 32.81%; MIC (Staphylococcus aureus): 0.25 µg/mL and 0.352 µM; MIC (Streptococcus pyogenes): 0.25 µg/mL and 0.352 µM; MIC (Salmonella typhimurium): 0.5 µg/mL and 0.703 µM; MIC (Pseudomonas aeruginosa): 0.25 µg/mL and 0.352 µM; MIC (Candida albicans): 0.5 µg/mL and 0.703 µM
CC(C)Cc1ccc(C(C)C(=O)O)cc1 (stereo not drawn) [IBUPROFEN] | 1.93 mm | 20% | 0.82 mm | 60% | 0.63 mm | 65% | 0.29 mm | 79% | 0.71 mm | 14% | 91% | 3.33% | 0.33 | 0.67 | 24.2 | 42.9% | 69.6% | 5.4 s | 7.6% | 5.12 s | Activity (Mus musculus [25]): 49.7%; Time (Mus musculus [26]): 4.12 s; Activity (Mus musculus [27]): 51.5%; Time (Mus musculus [28]): 3.48 s; Activity (Mus musculus [29]): 32.8%; Activity (Mus musculus [30]): 78.1%
COc1ccc2c(c1)c(CC(=O)O)c(C)n2C(=O)c1ccc(Cl)cc1 [INDOMETHACIN] | 1.11 mm | 53% | 0.85 mm | 59% | 0.59 mm | 67% | 0.18 mm | 87% | 0.12 mm | 86% | 100% | 10% | 2 | 1.67 | 16.3 | 61.6% | 100% | 6.3 s | 25.5% | 5.26 s | UI [31]: 13.67; Activity (Mus musculus [25]): 53.8%; Time (Mus musculus [26]): 3.84 s; Activity (Mus musculus [27]): 41.2%; Time (Mus musculus [28]): 3.72 s; Activity (Mus musculus [29]): 42%; Activity (Mus musculus [30]): 100%
